The values below come from patent publication US20120252723A1, “Regulating the Amino Acid Pool Used for the Acute-Phase Protein Synthesis” (N.V. Nutricia, priority 2009, published 2012).

“Also recorded” adds a separate entry of the source.

In test [1] the test system is HepG2 cells. The test is described as follows: Fibrinogen secretion by HepG2 cells (ELISA of media). The note with it: for fibrinogen secretion in media in which one amino acid was omitted: named amino acid omitted, isonitrogenously compensated with the other amino acids; for inhibition of IL-6 induced fibrinogen secretion: IL-1β 10 ng/ml, insulin 1 μM. Format: cell-based, human. As to the method: (§1) The effects of either the amino acid concentration or the amino acid composition on the acute-phase protein response in a human hepatocellular cell line (HepG2 cell) were studied. As model components, the production of fibrinogen and albumin were studied.
(§2) Cell culture: Human hepatoma HepG2 cells (ATCC HB-8065) were maintained in DMEM supplemented with 10% heat inactivated fetal calf serum (Life Technologies) with 2 mM glutamine and streptomycin/penicillin in Costar T75 flasks at 37° C. in a humidified atmosphere of 95% air-5% CO2. For experiments HepG2 cells were incubated in RPMI-1640 media without fetal calf serum. All experiments were carried out in 6 wells plates.
(§3) Incubations: HepG2 cells were grown in 6 wells plates to confluence, washed with DMEM ([…]) and subsequently incubated during 24-h with IL-6 and the custom media (RPMI-1640; RPMI-1640 select amino kit Gibco BRL). After the incubations, the media were collected and stored at −20° C. until analysis. The cells were then washed with phosphate-buffered saline (PBS) and lysed with 0.1M NaOH. The protein content was determined using the Bio-Rad Protein assay (Dye Reagent Concentrate, Bio-Rad Laboratories, Inc., Hercules Calif., USA) using bovine albumin (Sigma Aldrich) as standard. The data are presented as μg acute-phase protein in the supernatant per milligram protein cell content.
(§4) Antibodies: Rabbit anti-human fibrinogen and horseradish peroxidase (HRP)—conjugated rabbit anti-human fibrinogen were obtained from DakoCytomation (Denmark A/S, Glostrup, Denmark), anti-human albumin, HRP-conjugated anti-human albumin were obtained from Dade Behring B.V. (Leusden, the Netherlands).
(§5) ELISAs: Albumin and fibrinogen: 96-well flat-bottom Costar EIA/RIA plates were coated overnight with primary antibody in PBS at predetermined optimal concentration. After each incubation step, the plates were washed with 0.1% Tween-20 (Merck Eurolab B.V., Roden, the Netherlands) in PBS. After washing, the plates were blocked with 5% Protifar (Nutricia B.V., Zoetermeer, the Netherlands) in PBS during 90 min. Subsequently, the samples and antigen were incubated in 0.1% Tween-20 in PBS during 90 min. Next, the plates were incubated with HRP-conjugated antibodies in 0.1% Tween-20 in PBS during 90 min. The colorimetric reaction was carried out with undiluted 1-Step Ultra TMB-ELISA (Pierce, Rockland, Ill., USA). The reaction was stopped with 2 M sulphuric acid. The absorbances of the samples were measured at λ=450 nm.

The test system of test [2] is HepG2 cells. The test is described as follows: Albumin secretion by HepG2 cells (ELISA of media). Format: cell-based, human. Conditions: for albumin secretion in media in which one amino acid was omitted: named amino acid omitted, isonitrogenously compensated with the other amino acids. The protocol:
as §1, §2, §3, §4, §5

Where [3] appears, read: added in combination with IL-6 10 ng/ml, n=6.

“IL-6: Human IL-6 obtained from Sigma Aldrich [reference compound]”: the “fibrinogen secretion (excretion) from HepG2 cells” value with HepG2 cells [1] (incubation with IL-6, range 1-10 ng/ml, 24-h, n=6) is “concentration-dependent relationship; also recorded: significantly induces”. In addition, the “albumin secretion (excretion) from HepG2 cells” value with HepG2 cells [2] (incubation with IL-6 or other cytokines/hormones, 24-h, n=6) is on record as “no significant effects; also recorded: no effect”.
Take `N[C@@H](CS)C(=O)O` [cysteine]: in the test with HepG2 cells [1], the “fibrinogen secretion in media in which one amino acid was omitted” value (from here on “fibrinogen secretion in media”) is “significantly decreased; also recorded: significantly inhibited”. In addition, the “albumin secretion in media in which one amino acid was omitted” value (from here on “albumin secretion in media”) in the test with HepG2 cells [2] is “significantly decreased; also recorded: significantly inhibited”.
On to “IL-1β: cytokine, used at 10 ng/ml [reference compound]”, for which the “inhibition of IL-6 induced fibrinogen secretion” value in the test on HepG2 cells [1] (setting [3]) is on record as “approximately 25%”.
On to `C[C@@H]1C[C@H]2[C@@H]3CCC4=CC(=O)C=C[C@]4(C)[C@@]3(F)[C@@H](O)C[C@]2(C)[C@@]1(O)C(=O)CO` [dexamethasone, reference compound], for which the “enhancing effect on IL-6 induced fibrinogen secretion” value in the test with HepG2 cells [1] (added in combination with IL-6 10 ng/ml, dexamethasone 1 μM, n=6) was 20%.
Turning to insulin [reference compound], in the test with HepG2 cells [1] (setting [3]), the “inhibition of IL-6 induced fibrinogen secretion” value was 50%.
For the compound `N=C(N)NCCC[C@H](N)C(=O)O` [Arg, arginine], the “fibrinogen secretion in media” value with HepG2 cells [1] is given as “significantly decreased; also recorded: significantly inhibited”. In addition, the “albumin secretion in media” value in the test with HepG2 cells [2] is listed as “significantly decreased; also recorded: significantly inhibited”.
On to `N[C@@H](CO)C(=O)O` [Ser, serine], for which, in the test on HepG2 cells [1], the “fibrinogen secretion in media” value was “significantly decreased; also recorded: significantly inhibited”. Further, the “albumin secretion in media” value in the test with HepG2 cells [2] is “significantly decreased; also recorded: significantly inhibited”.
